Laboratory results: patent US20040229960A1, “Compositions and methods of administering tubulin binding agents for the treatment of ocular diseases” (priority 2001, published 2004)

Experiments:
[1] = Primary ocular irritation, topical drops; format: in vivo
Experimental: The test article, CA4P, was evaluated for primary ocular irritation. A single 0.2 ml dose of CA4P dilution (0.1, 1.0, 10 and 100 mg/ml) was placed in the lower conjunctival sac of the left eye […]. The contralateral eye received buffered saline solution. Ocular reactions were evaluated at 24, 48 and 72 hours after the sample instillation.

[2] = Biodistribution of 14C-CA4P following sub-Tenon's injection; format: in vivo, New Zealand rabbits
Experimental: ^14C-CA4P (OXiGENE Inc., Watertown, Mass.) was resuspended in 100 ul volume of saline solution and injected with a 30 G needle into the right eyes of anesthesized male New Zealand rabbits (4 months old, 1.8-2.5 kg, n=3 per sample). Three different concentrations of ^14C-CA4P were tested (1, 10, 100 mg/ml) corresponding to doses of 1, 5, and 5 uCi of applied radioactivity respectively. A blank control group was also included. Rabbits were anaesthetized at 1, 6, 24, and 48 hours for blood sampling. After blood collection, the animals were euthanized by Phenobarbital injection and the treated right eyes were removed from all test animals. Ocular tissue samples were dissected from the cornea, aqueous humor, vitreous humor, choroid, or retina, placed in 20-mi glass scintillation vials, vortexed, and incubated for 24 hrs with 500 ul digesting fluid. Plasma was separated from whole blood by centrifugation (1,800 g for 10 minutes). Both ocular tissue samples and plasma were incubated at room temperature with 16 ml of Hionic Fluor™ scintillation fluid for a period of 24 hours prior to radioactivity counting. Each sample was counted for 5 minutes in a Betamatic V counter (Bio-Tek Kontron Instruments, St Quentin en Yvelines, France). The conversion of counts per minute (“cpm”) into disintegrations per minute (“dpm”) was performed automatically by the beta-counter, using calibration curves obtained from ^14C-standards and quenching curves from the respective blank matrices spiked with ^14C-standards. The concentration of drug was determined according to nanogram equivalents of CA4P (ng-Eq/g of tissue) which was calculated from the measured dpm value, the weight of the tissue specimen, and the specific activity of the drug (0.37 mCi/mg), followed by subtraction of the corresponding background value from control eye tissue. A tissue concentration of 1 uM CA4P is equal to […] tissue.

[3] = system: ocular neovascularization; assay: LHP-induced ocular neovascularization, intravenous treatment; format: in vivo, rabbit; settings: 40 mg/kg i.v. once a day for five days; eyes examined seven days later
Experimental: To simulate pathogenic ocular angiogenesis, ocular neovascularization was induced by administration of lipid hydroperoxide (LHP) by intra-corneal injection at a dosage of 30 μg to rabbit eyes. Seven to 14 days later, ocular vessels formed in the injected eyes due to LHP insult. The subjects were divided into two groups; those of one group were given combretastatin A4 disodium phosphate by intravenous administration at a dosage of 40 mg/kg once a day for five days, while a vehicle without combretastatin A4 disodium phosphate was administered to the other group by i.v. administration as a dosage of water for the same time period. The eyes of both groups were examined seven days later.

[4] = system: oxygen-induced retinal neovascularization; assay: Murine model of oxygen-induced retinal neovascularization (ROP); format: in vivo; settings: neonatal mouse treated upon removal from hyperoxic conditions
Source text: The inner retina of the mammalian eye receives oxygen from the superficial retinal capillary bed. This capillary bed is located beneath the inner limiting membrane which serves as the interface between the inner retina and the outer avascular vitreous. The pathology of retinal neovascularization or retinopathy arises from ischemia-induced growth of neovasculature beyond the retinal inner limiting membrane and into the vitreous, causing severe loss of vision and frequently leading to retinal detachment. […] In this model neonatal mice are exposed to sustained hyperoxic conditions (75% oxygen for 7 days) that inhibit the development of the superficial retinal capillary bed. When a mouse pup is removed from the pure oxygen environment and placed in the relative hypoxia of environmental oxygen, the underdeveloped superficial retinal capillary bed is unable to deliver sufficient quantities of oxygen to the retina. […]
It is expected that the treatment of a neonatal mouse with CA4P immediately upon its removal from hyperoxic conditions would be an effective treatment method for ROP. Retinal neovascularization can be quantified by counting the number chemically stained nuclei of penetrating endothelial cells in retinal tissue section of treated and untreated eyes according to existing methods (Majka et al., Invest. Ophthalmol. Vis. Sci. 2001, 42: 210-15).

[5] = system: retinoblastoma; assay: Murine transgenic model of retinoblastoma, subconjunctival treatment; format: in vivo, SV-40 Large T antigen positive mice
Experimental: A murine transgenic model of retinoblastoma was used in which SV-40 Large T antigen positive mice develop bilateral retinoblastoma resembling human pediatric retinoblastoma. In this model, tumors first appear at 4 weeks of age and develop in a stable and reproducible manner (Hayden et al., Arch Ophthalmol. 2002;120(3):353-9). In one experiment, 12-week old animals (n=48) were treated with a single 20 ul subconjunctival injection of CA4P (100 mg/ml) in the right eye only. Control mice (n=8) were treated with a balanced salt solution (“BSS”). Eyes were sampled by enucleation at Days 1, 3, 7, 14, 21, and 28 post treatment (n=8 eyes per sample). Samples were fixed, paraffin embedded, serially sectioned, and stained with heometoxylin, eosin, and PAS prior. Each tissue sample was examined for histopathological tumor vascular response.
In a separate dosing experiment, animals (n=48) were treated with 6 serial biweekly subconjunctival injections of CA4P, at concentrations of 100, 10, 1, 0.1 or 0.01 mg/ml in a volume of 20 ul (n=6 eyes per sample). A control group (n=6) received serial subconjunctival injections of BSS. Eyes were enucleated at 28 days post-treatment and examined for tumor volume reduction. FIG. 5B illustrates the dose-dependent effect of CA4P on tumor vascular volume in comparison to control.

**Q.** Which results are given for `COc1ccc(/C=C\c2cc(OC)c(OC)c(OC)c2)cc1OP(=O)([O-])[O-].[Na+].[Na+]` [CA4P, combretastatin A4 disodium phosphate]?
**A.** Irritation (Draize Scores) ([1]; Topical, 0-10 mg): No Irritation; Macroscopic ocular reaction vs control ([1]; all dilutions 0.1-100 mg/ml, single 0.2 ml topical dose, 24-72 h): insignificant; Microscopic ocular irritation vs buffered saline ([1]; topical drops 0.1-100 mg/ml): not considered an irritant; Cmax ([2]; aqueous humor, 1 mg/ml sub-Tenon's): 300 nM; Cmax ([2]; aqueous humor, 10 mg/ml sub-Tenon's): 1800 nM; Cmax ([2]; aqueous humor, 100 mg/ml sub-Tenon's): 5920 nM; Cmax ([2]; choroid, 1 mg/ml sub-Tenon's): 1200 nM; Cmax ([2]; choroid, 10 mg/ml sub-Tenon's): 6200 nM; Cmax ([2]; choroid, 100 mg/ml sub-Tenon's): 861000 nM; Cmax ([2]; plasma, 1 mg/ml sub-Tenon's): 70 nM; Cmax ([2]; plasma, 10 mg/ml sub-Tenon's): 490 nM; Cmax ([2]; plasma, 100 mg/ml sub-Tenon's): 9300 nM; Concentration of drug delivered ([2]; retina and choroid, 100 and 10 mg/ml, sub-Tenon's): > 1000 nM; Cmax ([2]; retina, 1 mg/ml sub-Tenon's): 850 nM; Cmax ([2]; retina, 10 mg/ml sub-Tenon's): 7100 nM; Cmax ([2]; retina, 100 mg/ml sub-Tenon's): 171000 nM; Time of highest concentrations of drug in the eye ([2]; sub-Tenon's injection): within the first hour; Cmax ([2]; vitreous, 1 mg/ml sub-Tenon's): 19 nM; Cmax ([2]; vitreous, 10 mg/ml sub-Tenon's): 130 nM; Cmax ([2]; vitreous, 100 mg/ml sub-Tenon's): 3900 nM; Reduction of vessels [3]: ≥ 40%; Number of nuclei penetrating the inner limiting membrane [4]: significantly reduced; Intratumoral vascularity ([5]; 6 serial biweekly subconjunctival injections, dose levels above 10 mg/ml, 28 days post-treatment): No intratumoral vascularity was present; Toxicity ([5]; any time point or treatment dose (0.01-100 mg/ml subconjunctival)): no evidence of toxicity was noted; Intratumoral vascularization ([5]; single 20 ul subconjunctival injection, 100 mg/ml, Days 1, 3 and 7): significant reduction in intratumoral vascularization
